Entries after “also recorded” stand apart in the source; their conditions may differ.
Assays:
TNFα mRNA = experiment: RT-PCR of mouse liver, TNFα; format: in vivo; settings: HFD+NCT vs HFD, FIG. 5B
Procedure: (§1) NCT oral administration. Four-week-old male C57BL/6J (JAX cat #000664) mice were purchased from Jackson laboratory and were maintained in a 12 h light/dark cycle throughout the experiment. Prior to the experiments, mice were acclimated for 2 weeks. Six-week-old mice with similar body weights were randomized to a normal diet (NC), a high fat diet (HFD) (Research Diets, cat #D12492 60 kcal % fat) or HFD containing 4000 ppm NCT (HFD+NCT) (Research Diets, 60 kcal % fat+4000 ppm NCT), which was calculated to provide approximately 400 mg/kg/d NCT. HFD chow containing NCT was made with gray dye to distinguish it from regular HFD chow that had green dye. Mice for each treatment group were placed in separate cages. Equal amounts of fresh chow were provided every week to all mice. Body weight gain and food intake were measured every week for 10 weeks. After 10 weeks of chow treatment, mice were sacrificed for analysis. […]
(§2) RT-PCR. […] Quantitative real time PCR (RT-PCR) analysis was performed using SYBR® Select Master Mix (Applied Biosystems) and an ABI 7900HT thermal cycler (Applied Biosystems, Thermo Fisher Scientific). Ct values were normalized to 18s rRNA and are expressed as fold change over samples from mice fed NC or cultured human hepatocytes without NCT.

[1] = system: total cellular nicotinamide adenine dinucleotide (NAD); experiment: Nicotinamide adenine dinucleotide assay in liver lysate; format: in vivo, mouse; settings: HFD+NCT vs HFD, 10 weeks
Procedure: NCT oral administration. Four-week-old male C57BL/6J (JAX cat #000664) mice were purchased from Jackson laboratory and were maintained in a 12 h light/dark cycle throughout the experiment. Prior to the experiments, mice were acclimated for 2 weeks. Six-week-old mice with similar body weights were randomized to a normal diet (NC), a high fat diet (HFD) (Research Diets, cat #D12492 60 kcal % fat) or HFD containing 4000 ppm NCT (HFD+NCT) (Research Diets, 60 kcal % fat+4000 ppm NCT), which was calculated to provide approximately 400 mg/kg/d NCT. HFD chow containing NCT was made with gray dye to distinguish it from regular HFD chow that had green dye. Mice for each treatment group were placed in separate cages. Equal amounts of fresh chow were provided every week to all mice. Body weight gain and food intake were measured every week for 10 weeks. After 10 weeks of chow treatment, mice were sacrificed for analysis. All animal experiments were approved by the Institutional Animal Care and Use Committee (IACUC) of the Sanford Burnham Prebys Medical Discovery Institute in accordance with national regulations. Sample size was chosen based on the prior study of NCT delivered by IP injection.
Nicotinamide adenine dinucleotide assay. Total NAD level in liver lysate was analyzed according to manufacturer's instructions using a calorimetric NAD+/NADH assay kit (Cat #MET-5014, Cell Biolabs, Inc. USA). […]

PPARGC1A mRNA = experiment: RT-PCR of primary human hepatocytes, PPARGC1A; format: cell-based; settings: HEP-fat media, NCT 5, 15, and 40 μM, FIG. 4F
Procedure: (§3) Primary human hepatocytes. Experiments with primary human hepatocytes were performed by CN-Bio (Cambridge, UK). Briefly, primary human hepatocytes (PHHs), human Kupffer cells (HKs) and human stellate cells (HSCs) were seeded onto CN-Bio's PhysioMimix LC12 MPS culture plates at 6×10^5 cells for PHHs and 6×10^4 cells for HKs and HSCs in 1.6 ml of CN-Bio's HEP-lean media with 5% FCS. Throughout the experiment the cells were maintained at a flow rate of 1 μl/s. After 24 hours (Day 1) of seeding, the media was changed to HEP-lean media and the cells were incubated until day 4 to allow the cells to form microtissues. At day 4 post seeding, media was changed to HEP-fat media and treated with DMSO or NCT (5, 15, and 40 μM). Media was replaced on days 6 and 8. Cells were harvested on day 10 for RNA extraction and culture media was collected for ELISA analysis.
as §2

SDHA mRNA = experiment: RT-PCR of mouse liver, SDHA; format: in vivo; settings: HFD+NCT vs HFD, FIGS. 3G and 3H
Procedure: as §1, §2

T6PNE cells = experiment: Nitric oxide assay in T6PNE cells treated with palmitate; format: cell-based; settings: 0.12 mM palmitate plus 15 μM NCT, 3 days, FIG. 5H
Procedure: T6PNE cells were maintained in RPMI (5.5 mM glucose, Corning) supplemented with 10% fetal bovine serum (FBS, Sigma-Aldrich) and 1% penicillin-streptomycin (pen-strep, Gibco) in 5% CO2 at 37° C. Cells were treated with […] palmitate plus 0 or 15 μM NCT for 3 days in 10 cm plates and harvested with 500 μL PBS. For tissue specimens, snap frozen mouse liver was weighed and homogenized with PBS. NO was measured with the QuantiChrom Nitric Oxide Assay kit (D2NO-100, BioAssay Systems). Homogenized samples (150 μL) were processed for deproteination with 8 μL ZnSO4 and 8 μL NaOH. For normalization, an aliquot of samples from T6PNE cells was taken for BCA assay before deproteination. Samples and standard from kit were incubated with reagents for 20 min at 60° C. and measured OD 540 nm.
150 mM Palmitate (Sigma-Aldrich) was prepared in 50% ethanol and precomplexed with 15% fatty acid-free BSA (Research Organics, Cleveland, OH, USA) in a 37° C. water shaker. BSA-precomplexed palmitate was used as a 12 mM stock solution for all assays with a final concentration of 0.12 mM palmitate in cell culture medium.

nitric oxide (NO) = experiment: Nitric oxide assay in mouse liver; format: in vivo; settings: HFD+NCT vs HFD, FIG. 5G
Procedure: as §1
T6PNE cells were maintained in RPMI (5.5 mM glucose, Corning) supplemented with 10% fetal bovine serum (FBS, Sigma-Aldrich) and 1% penicillin-streptomycin (pen-strep, Gibco) in 5% CO2 at 37° C. […] NO was measured with the QuantiChrom Nitric Oxide Assay kit (D2NO-100, BioAssay Systems). […] Samples and standard from kit were incubated with reagents for 20 min at 60° C. and measured OD 540 nm.

Sirt3 mRNA = experiment: RT-PCR of primary human hepatocytes, Sirtuin3; format: cell-based; settings: HEP-fat media, NCT 5, 15, and 40 μM, FIG. 4H
Procedure: as §3, §2

VDAC1 = VDAC1 immunofluorescence of liver sections; format: in vivo, mouse; settings: HFD+NCT vs HFD, FIGS. 3A-3C
Procedure: as §1
Immunofluorescence. […] Slides were mounted using fluorescence mounting medium and images were obtained at ×40 magnification using an Olympus IX71 fluorescence microscope. Fluorescence intensity of HNF4α-stained nuclei and VDAC stained mitochondria was calculated using MetaMorph TL software (version 7.6.5.0, Olympus). Fold change was calculated by normalizing to values from mice fed NC.

cytochrome C mRNA = experiment: RT-PCR of primary human hepatocytes, cytochrome C; format: cell-based; settings: 0 μM vs. each concentration of NCT, FIG. 3I
Procedure: as §3, §2

Sirt1 mRNA = experiment: RT-PCR of primary human hepatocytes, Sirtuin1; format: cell-based; settings: HEP-fat media, NCT 5, 15, and 40 μM, FIG. 4G
Procedure: as §3, §2

SMILES: O=C(/C=C/c1ccc(O)c(O)c1)NCCc1ccc(O)cc1 [NCT, N-trans caffeoyltyramine]
- TNFα level in livers of mice on HFD (TNFα mRNA): decreased
- TNFα level in livers of mice on HFD (TNFα mRNA; listed as Compound A): decrease
- total cellular NAD in liver [1]: increased; also recorded: substantial increase
- PPARGC1A(PGC1a) mRNA in primary human hepatocytes (PPARGC1A mRNA): increase
- SDHA mRNA in mouse liver (SDHA mRNA): increase
- level of NO in cultured cells treated with palmitate (T6PNE cells): decrease
- level of NO in the livers of mice fed on HFD (nitric oxide (NO)): decrease
- Sirt3 mRNA in primary human hepatocytes (Sirt3 mRNA): reverse the depression
- VDAC1 level in liver (VDAC1): reverse the depression
- cytochrome C mRNA levels in primary human hepatocytes (cytochrome C mRNA): non-significant
- Sirt1 mRNA in primary human hepatocytes (Sirt1 mRNA): reverse the depression

Reference: patent US20240315991A1, “USES OF HNF4 ALPHA AGONISTS” (Sanford Burnham Prebys Medical Discovery Institute, priority 2023, published 2024)
